Reference: patent publication US20220409620A1, “REDUCING IMMUNOGENICITY TO PEGLOTICASE” (Horizon Pharma Rheumatology LLC, priority 2016, published 2022)

Tested on: adult patients with uncontrolled gout
Test: Serum uric acid (sUA) levels and sUA responder rate, open-label study of pegloticase with MTX (MIRROR OL)
Assay type: in vivo, human
Procedure: The primary objective is to estimate the response rate during Month 6 (Weeks 20, 22, and 24), as measured by the sustained normalization of serum uric acid (SUA) to <6 mg/dL for at least 80% of the time during Month 6 in subjects receiving KXX with MTX.
The primary efficacy outcome endpoint is the sustained normalization of SUA to <6 mg/dL for at least 80% of the time during month 6 (weeks 20, 22, and 24) in subjects receiving KXX with MTX. […] Participants who achieve this endpoint were classified as “responders.” Serum uric acid (SUA) responders may also be defined as participants achieving and maintaining SUA <6 mg/dL for at least 80% of the time during Month 6 (Weeks 20, 22, and 24).
Blood samples may be collected prior to each pegloticase infusion for measurement of SUA levels using the Beckman Coulter AU System Uric Acid procedure. Participants were declared “non-responders” if there were SUA measures >6 mg/dL at 2 consecutive study visits beginning with the week 2 visit. […] This assumption and subsequent discontinuation of pegloticase was consistent with the protocol of large phase III randomized controlled trials and the product label. A formal stopping rule was 2 occasions of SUA levels of greater than 6 mg/dL.
Clinical Chemistry—Blood samples were collected prior to each pegloticase infusion for measurement of SUA levels (primary efficacy parameter) using the Beckman Coulter AU System Uric Acid procedure. In this procedure uric acid is converted to hydrogen peroxide. Hydrogen peroxide reacts with reagent to produce a chromophore which is read bichromatically at 660/800 nm. The amount of dye formed is proportional to the uric acid concentration in the sample.
Serum samples for measurement of SUA levels were collected at the Screening Visit, the Week −4 Visit (prior to the first dose of MTX), and the Week −2 Visit during the MTX Run-in Period; within 48 hours prior to each pegloticase infusion and after the end of each pegloticase infusion prior to discharge from the site during the Pegloticase+IMM Period; at the non-infusion Week 52/End of Study/Early Termination Visits and at the Post Treatment 3 and 6 Month Follow-up Visits. Additional serum samples for SUA levels were collected at optional non-infusion (Frequent Sampling) Visits at Weeks 1 and 7. […] Subjects with SUA level >6 mg/dL at 2 consecutive visits beginning at Week 2 visit discontinued treatment, completed the End of Pegloticase Infusion Visit procedures within 2 weeks and continued the subject visits according to the protocol (without treatment).
Efficacy analyses were performed using the modified intention-to-treat (mITT) population, defined as all enrolled subjects who received ≥1 dose of pegloticase. The proportion of Month 6 responders was summarized, along with a 95% confidence interval for the proportion. The proportion of Month 3 and overall (Months 3 and 6 combined) responders was analyzed similarly.
A subject was declared a non-responder if the subject had SUA level >6 mg/dL at 2 consecutive study visits beginning with the Week 2 Visit. In addition, a subject who withdraws from study treatment for any reason after the first dose of pegloticase in the KXX+MTX Period and prior to Month 6 (for the primary endpoint) or Month 3 (for the secondary endpoint) was considered a non-responder if SUA values were not collected at the planned time points.
Patients were administered oral MTX (15 mg/week) and folate (1 mg/day) 4 weeks prior to the first pegloticase infusion (Day 1) and throughout the pegloticase treatment period. Blood was drawn prior to each infusion to measure sUA level, monitor clinical parameters, and examine for ADA development. All patients followed typical IR prophylaxis protocols (fexofenadine one day before and the morning of each infusion and acetaminophen and IV corticosteroid the morning of each infusion).

[1] = Day 1 - Post-Infusion, mITT Population
[2] = Early Termination Visit, mITT Population
[3] = End of Pegloticase Infusions Visit, mITT Population
[4] = Month 6 sUA Non-Responders, Day 1-Post-Infusion, n=3
[5] = Month 6 sUA Non-Responders, Early Termination Visit, n=3
[6] = Month 6 sUA Non-Responders, Week 1, n=2
[7] = Month 6 sUA Non-Responders, Week 2-Post-Infusion, n=3
[8] = Month 6 sUA Non-Responders, Week 2-Pre-Infusion, n=3
[9] = Month 6 sUA Non-Responders, Week 4-Pre-Infusion, n=3
[10] = Month 6 sUA Non-Responders, Week 8-Post-Infusion, n=1
[11] = Month 6 sUA Non-Responders, Week 8-Pre-Infusion, n=1
[12] = Month 6 sUA Non-Responders, Week 10-Pre-Infusion, n=1
[13] = Month 6 sUA Responders, Day 1-Post-Infusion, n=8

Substance: pegloticase
- Serum Uric Acid, Change from Baseline, Mean (SD) [1]: −7.29 (2.254) mg/dL
- Serum Uric Acid, Change from Baseline, Median [1]: -7.30 mg/dL
- Serum Uric Acid, Observed, Mean (SD) [1]: 1.18 (1.417) mg/dL
- Serum Uric Acid, Observed, Median [1]: 0.30 mg/dL
- sUA <6 mg/dL, n (%) [1]: 11 (100%)
- Serum Uric Acid, Change from Baseline, Mean (SD) [2]: −0.57 (0.635) mg/dL
- Serum Uric Acid, Change from Baseline, Median [2]: -0.20 mg/dL
- Serum Uric Acid, Observed, Mean (SD) [2]: 8.17 (0.058) mg/dL
- Serum Uric Acid, Observed, Median [2]: 8.20 mg/dL
- sUA <6 mg/dL, n (%) (Early Termination Visit, mITT Population, number of subjects (% not given)): 0
- Serum Uric Acid, Change from Baseline, Mean (SD) [3]: −8.50 (1.556) mg/dL
- Serum Uric Acid, Change from Baseline, Median [3]: -8.50 mg/dL
- Serum Uric Acid, Observed, Mean (SD) [3]: 0.30 (0.000) mg/dL
- Serum Uric Acid, Observed, Median [3]: 0.30 mg/dL
- sUA <6 mg/dL, n (%) [3]: 2 (100%)
- Serum Uric Acid, Change from Baseline, Mean (SD) [4]: −6.60 (2.848) mg/dL
- Serum Uric Acid, Change from Baseline, Median [4]: -7.20 mg/dL
- Serum Uric Acid, Observed, Mean (SD) [4]: 2.13 (2.438) mg/dL
- Serum Uric Acid, Observed, Median [4]: 1.20 mg/dL
- sUA <6 mg/dL, n (%) [4]: 3 (100%)
- Serum Uric Acid, Change from Baseline, Mean (SD) [5]: −0.57 (0.635) mg/dL
- Serum Uric Acid, Change from Baseline, Median [5]: -0.20 mg/dL
- Serum Uric Acid, Observed, Mean (SD) [5]: 8.17 (0.058) mg/dL
- Serum Uric Acid, Observed, Median [5]: 8.20 mg/dL
- sUA <6 mg/dL, n (%) [5]: 0%
- Serum Uric Acid, Change from Baseline, Mean (SD) [6]: −8.10 (0.000) mg/dL
- Serum Uric Acid, Change from Baseline, Median [6]: -8.10 mg/dL
- Serum Uric Acid, Observed, Mean (SD) [6]: 0.30 (0.000) mg/dL
- Serum Uric Acid, Observed, Median [6]: 0.30 mg/dL
- sUA <6 mg/dL, n (%) [6]: 2 (100%)
- Serum Uric Acid, Change from Baseline, Mean (SD) [7]: −8.43 (0.577) mg/dL
- Serum Uric Acid, Change from Baseline, Median [7]: -8.10 mg/dL
- Serum Uric Acid, Observed, Mean (SD) [7]: 0.30 (0.000) mg/dL
- Serum Uric Acid, Observed, Median [7]: 0.30 mg/dL
- sUA <6 mg/dL, n (%) [7]: 3 (100%)
- Serum Uric Acid, Change from Baseline, Mean (SD) [8]: −5.17 (4.225) mg/dL
- Serum Uric Acid, Change from Baseline, Median [8]: -5.70 mg/dL
- Serum Uric Acid, Observed, Mean (SD) [8]: 3.57 (3.775) mg/dL
- Serum Uric Acid, Observed, Median [8]: 2.70 mg/dL
- sUA <6 mg/dL, n (%) [8]: 2 (66.7%)
- Serum Uric Acid, Change from Baseline, Mean (SD) [9]: −3.70 (4.744) mg/dL
- Serum Uric Acid, Change from Baseline, Median [9]: -1.80 mg/dL
- Serum Uric Acid, Observed, Mean (SD) [9]: 5.03 (4.177) mg/dL
- Serum Uric Acid, Observed, Median [9]: 6.60 mg/dL
- Serum Uric Acid, Change from Baseline, Mean (SD) [10]: −9.10 (NE) mg/dL
- Serum Uric Acid, Change from Baseline, Median [10]: -9.10 mg/dL
- Serum Uric Acid, Observed, Mean (SD) [10]: 0.30 (NE) mg/dL
- Serum Uric Acid, Observed, Median [10]: 0.30 mg/dL
- sUA <6 mg/dL, n (%) [10]: 1 (100%)
- Serum Uric Acid, Change from Baseline, Mean (SD) [11]: −0.50 (NE) mg/dL
- Serum Uric Acid, Change from Baseline, Median [11]: -0.50 mg/dL
- Serum Uric Acid, Observed, Mean (SD) [11]: 8.90 (NE) mg/dL
- Serum Uric Acid, Observed, Median [11]: 8.90 mg/dL
- sUA <6 mg/dL, n (%) [11]: 0%
- Serum Uric Acid, Change from Baseline, Mean (SD) [12]: −1.30 (NE) mg/dL
- Serum Uric Acid, Change from Baseline, Median [12]: -1.30 mg/dL
- Serum Uric Acid, Observed, Mean (SD) [12]: 8.10 (NE) mg/dL
- Serum Uric Acid, Observed, Median [12]: 8.10 mg/dL
- sUA <6 mg/dL, n (%) [12]: 0%
- Serum Uric Acid, Change from Baseline, Mean (SD) [13]: −7.55 (2.158) mg/dL
- Serum Uric Acid, Change from Baseline, Median [13]: -7.50 mg/dL
- Serum Uric Acid, Observed, Mean (SD) [13]: 0.83 (0.798) mg/dL
